{"source": "patent US20240065998A1", "about": "“MONOACYLGLYCEROL AND FREE FATTY ACID-BASED COMPOSITIONS, METHODS OF MANUFACTURING AND USE OF THE SAME” (priority 2021, published 2024)", "key": {"[1]": {"test_system": "Herpes simplex-1 (HSV-1, H1KOS S1)", "assay": "Virucidal assay, 2 minute contact, end-point dilution (CCID50, LRV)", "format": "cell-based", "conditions": "70%, 2 min, 37 ± 2° C."}, "[2]": {"test_system": "Respiratory syncytial virus (RSV, A2)", "format": "cell-based", "conditions": "70%, 2 min, 37 ± 2° C.; for LRV: VC titer 3.3"}, "[3]": {"test_system": "titer assay cells (MA-104, Vero E6, Vero 76)"}, "SARS-CoV-2, USA_WA1/2020": {"test_system": "SARS-CoV-2, USA_WA1/2020", "format": "cell-based", "conditions": "70%, 2 min, 37 ± 2° C."}, "[4]": {"conditions": "cited from earlier work; for HLB: exemplary HLB value of the single emulsifier"}, "[5]": {"assay": "HLB values of compositional components", "conditions": "share in the oil phase of ACv14 (% of oil phase x rHLB); Total = sum", "source_text": "HLB is typically considered when planning oil-in-water cream formulations according to the requirements of the cream.\nIf the Oat EMO is omitted and the Flax FFA oil raised, then a higher rHLB is required, meaning that a larger percentage of the emulsifier can be high HLB (S-20). This 0% Oat MAG (EMO) and 4% Flaxseed FFA oil combo gives an rHLB value of 12.64, which would coincide with a 25/75 ratio of S-2/S-20 or Monolaurin/S-20. This would minimize the amount of S-2 which caused larger coalescence at a 1:1 ratio overnight."}, "[6]": {"test_system": "Respiratory Syncytial Virus (RSV), Herpes Simplex Virus (HSV), H1N1 flu virus, and SARS-CoV-2", "format": "cell-based", "conditions": "nEMO at 0.5 to 50 mg/mL, EtOH 70%", "source_text": "Table 73 below provides formulations of a nEMO sanitizer with 0.5% nEMO, 29.5% glycerol, and 70% […]."}}, "note": "Like-named read-outs stand apart in the source and are kept apart here."}
{"compound": "CCO", "note": "[Ethanol]", "values": [{"measurement": "LRV", "setting": "[1]; Table 60A, VC titer 4.5", "value": ">3.8"}, {"measurement": "LRV", "setting": "[1]; Table 60B, VC titer 5.0", "value": ">4.3"}, {"measurement": "Virus Titer", "setting": "[2]; Table 57A", "value": "<0.7 log10 CCID50 of virus per 0.1 mL"}, {"measurement": "LRV", "setting": "[2]; Table 57A", "value": ">2.6"}, {"measurement": "Virus Titer", "setting": "[2]; Table 57B", "value": "<0.7 log10 CCID50 of virus per 0.1 mL"}, {"measurement": "LRV", "setting": "[2]; Table 57B", "value": ">2.6"}, {"measurement": "Toxicity (highest dilution of the endpoint titer with full (80-100%) cytotoxicity)", "setting": "[3]", "value": "None"}, {"measurement": "Virus Titer", "setting": "SARS-CoV-2, USA_WA1/2020; Table 59A", "value": "<0.7 log10 CCID50 of virus per 0.1 mL"}, {"measurement": "LRV", "setting": "SARS-CoV-2, USA_WA1/2020; Table 59A, VC titer 5.3", "value": ">4.6"}, {"measurement": "Virus Titer", "setting": "SARS-CoV-2, USA_WA1/2020; Table 59B", "value": "<0.7 log10 CCID50 of virus per 0.1 mL"}, {"measurement": "LRV", "setting": "SARS-CoV-2, USA_WA1/2020; Table 59B, VC titer 5.0", "value": ">4.3"}]}
{"compound": "CCCCCCCCCCCCCCCCO", "note": "[Cetyl Alcohol]", "values": [{"measurement": "Required HLB (rHLB)", "setting": "[4]; exemplary value of the oil phase component", "value": 15.5}, {"measurement": "rHLB of oil percentage", "setting": "[5]", "value": 3.69}]}
{"compound": "CCO", "note": "[EtOH]", "values": [{"measurement": "Virucidal Activity", "setting": "[6]; H1N1, Log10 of initial virus concentration 5.7", "value": ">99.99", "unit": "%"}, {"measurement": "Virucidal Activity", "setting": "[6]; HSV, Log10 of initial virus concentration 5", "value": ">99.99", "unit": "%"}, {"measurement": "Virucidal Activity", "setting": "[6]; RSV, Log10 of initial virus concentration 3.3", "value": ">99", "unit": "%"}, {"measurement": "Virucidal Activity", "setting": "[6]; SARS-COV-2, Log10 of initial virus concentration 5", "value": ">99.99", "unit": "%"}]}
{"compound": "Glyceryl Stearate SE", "values": [{"measurement": "HLB", "setting": "[4]", "value": 5.8}]}
{"compound": "Steareth-2", "values": [{"measurement": "HLB", "setting": "[4]", "value": 4.9}]}
{"compound": "CCCCCCCCCCCC(=O)OCC(O)CO", "note": "(centres unmarked) [Glyceryl Laurate]", "values": [{"measurement": "HLB", "setting": "[4]", "value": 5.2}]}
